Laboratory results taken from patent publication US20210340629A1, “BIOMARKERS FOR CANCER THERAPY” (The Council of the Queensland Institute of Medical Research, priority 2018, published 2021).

Experiments:
melanoma cell lines = assay: Cell viability by MTT assay, melanoma cell lines; format: cell-based, human; settings: 5 μM, 48 hours, vs vehicle (DMSO), FIG. 2
Description: (§1) UNC0642 was purchased from Sigma Aldrich. The panel of human melanoma cell lines, derived from cutaneous melanomas, is shown in Table 1 and the cells have all been previously described. Cells were maintained in Roswell Park Memorial Institute (RPMI) 1640 supplemented with 10% fetal bovine serum (FBS), 100 U/mL penicillin, and 100 µg/mL streptomycin in a humidified atmosphere of 5% CO2 at 37° C. Normal melanocytes were grown in Clonetics™ MGM™-4 Melanocyte Growth Medium-4 supplemented with CaCl2, phorbol-12-myristate 13-acetate (PMA), recombinant human fibroblast growth factor basic (rhFGF-B), recombinant human insulin (rh-insulin), hydrocortisone, bovine pituitary extract (BPE), FBS and GA-1000 (30 μg/ml Gentamycin and 15 ng/ml Amphotericin) (Lonza).
(§2) For proliferation studies, cells (5×10^3) were seeded in 96-place wells and allowed to adhere overnight, and incubated in fresh growth medium in the presence of either the G9a inhibitor UNC0642 (Sigma Aldrich) or the vehicle control DMSO (Sigma Aldrich). Proliferation was evaluated via real-time imaging using IncuCyte Zoom (Essen BioScience) and/or by performing a 3-(4,5-dimethylthiazol-2-yl)-2,5-diphenyltetrazolium bromide ([…]) assay. After monitoring the cells, 20 μL of MTT (5 mg/mL; Sigma-Aldrich) was added. […] The absorbance value (optical density) of each well was measured at 570 nm.

normal melanocytes = assay: Cell viability by MTT assay, normal melanocytes; format: cell-based; settings: 5 μM, 48 hours, FIG. 2
Description: as §1, §2

[1] = system: D05 and C092 melanoma cell lines; assay: Cell cycle analysis (flow cytometric analysis); format: cell-based, human; settings: data not shown
MAP1LC3B [2] = assay: Quantitative real time PCR of MAP1LC3B expression in melanoma cell lines; format: cell-based, human; settings: 24 hours
Description: (§3) Quantitative RT-PCR and ChIP assays were conducted as previously described (Lee et al. (2010) Mol Cell 39, 71-85). Briefly, total RNA was isolated from either the tumor cells or from xenografts using Trizol (Invitrogen) and reverse transcription was performed from 2 μg of total RNA using the Superscript III cDNA synthesis system (Invitrogen). The abundance of mRNA was detected by an ABI VIIA7 system with SYBR Green Master Mix (Life Technologies). Primer pairs were designed to amplify 90-150 bp mRNA specific fragments and were confirmed as unique products by melting curve analysis. The quantity of mRNA was calculated using the ΔΔCt method and normalized to HPRT. All reactions were performed in triplicates.

MAP1LC3B [3] = assay: MAP1LC3B expression in excised D20 xenograft tumors (qRT-PCR, immunohistochemistry); format: in vivo, SCID mice; settings: 5 mg/kg
Description: as §3
Groups of 8 SCID mice per treatment group were used for xenograft studies to ensure adequate power to detect biological differences. All experiments were approved by the QIMR Berghofer Medical Research Institute Animal Ethics Committee. […] Tumor volumes (width2×length/2) were measured using a digital calliper, and presented as mean±SD. […]
Tumor sections were fixed in 4% paraformaldehyde. […] Aperio ImageScope software was used for imaging and quantitation of 5 non-overlapping tumor regions and evaluating the number of positive pixels per unit area in each region. Empty areas were manually excluded from quantification.
Quantitative RT-PCR was performed as described above.

COc1cc2c(NC3CCN(C(C)C)CC3)nc(N3CCC(F)(F)CC3)nc2cc1OCCCN1CCCC1 [UNC0642]
Cell survival (cell viability, MTT assay) (melanoma cell lines): significantly attenuated
survival of the normal melanocyte cell culture (normal melanocytes): unaffected
increase in preG1 population ([1]; C092 (less G9a inhibitor responsive) cell line): absent
cell cycle status ([1]; D05 and C092, flow cytometric analysis): neither D05 nor C092 showed any changes in cell cycle status
increase in cells in preG1 phase ([1]; G9a inhibitor responsive cells (D05)): greater than 4 fold
cells in both G1 and G2/M phases [1]: reduction
induction of MAP1LC3B expression (MAP1LC3B [2]; less sensitive cells (C006 and C092), no statistically significant difference to vehicle, FIG. 8): minimal
MAP1LC3B expression, induction compared to vehicle control (MAP1LC3B [2]; very sensitive lines (D05 and C008), P<0.05, FIG. 8): ~2 fold
expression of the MAP1LC3B gene in tumors (quantitative real time PCR) (MAP1LC3B [3]; compared to the vehicle treated group, P<0.01, FIG. 10C): statistically significant increase
level of MAP1LC3B in the excised tumors (immunohistochemical analysis) (MAP1LC3B [3]; compared to vehicle, FIG. 10D): significantly increased
